Data published in patent US11969440B2, “Metal (hydr)oxide composite comprising poorly soluble drug, method for manufacturing same, and pharmaceutical composition comprising same” (priority 2020, dated 2024).
≈ marks a conversion by molar mass, not a printed value.

Experiments:
[1] = single oral 40 mg/kg, MgO:HPMC compositions of Comparative Examples 2 to 4, FIG. 41 to 43
[2] = cited from earlier work

O=c1[nH]cc(F)c(=O)[nH]1 [Example 5-FU, 5-FU]
bioavailability of the compound as MgO composite versus the compound alone [1]: not improved | solubility in water [2]: 12.2 mg/mL (≈ 93.8 mM)
